Data: patent US20090221649A1, “Use of substituted 2-thio-3,5-dicyano-4-phenyl-6-aminopyridines for the treatment of reperfusion injury and reperfusion damage” (Bayer HealthCare AG, priority 2005, published 2009)
“Also recorded” adds a separate entry of the source.

Columns and labels:
[1] = Tolerability when given intravenously; assay type: in vivo
rabbit hearts (in vivo) = test: Limitation of infarct size in rabbit hearts in vivo (open-chest rabbits), drug at reperfusion; set-up: species or system New Zealand White rabbits
Protocol: Rabbits (New Zealand White rabbits of either sex weighing 1.6 to 3.0 kg) were anesthetized with sodium pentobarbital (30 mg/kg) which was subsequently supplemented as needed. Positive pressure ventilation with 100% oxygen was instituted. The heart was exposed through a left thoracotomy and a ligature was passed under a coronary branch to create the ischemia. Drug was given intravenously in a dose of 10 μg/kg over 1 min starting 5 min prior to reperfusion and again 15 min after reperfusion. The heart was removed after 3 hr of reperfusion. The risk zone was stained with fluorescent microspheres, then the heart was sliced into 2 mm sections and the infarct size was determined by tetrazolium staining.
Postconditioning is an established cardioprotective intervention where the occluded artery is intermittently opened and closed for four 30-second cycles at the end of the ischemic insult.

isolated rabbit hearts = test: Limitation of infarct size in isolated buffer-perfused rabbit hearts, drug at reperfusion
Protocol: The quantification of infarct size and experimental design followed the protocol described by Zhang et al., J Cardiovasc Pharmacol 42, 2003.
Hearts were quickly removed from anesthetized rabbits and perfused with Krebs buffer. […] The risk zone was stained with fluorescent microspheres, then the heart was sliced into 2 mm sections and the infarct size was visualized by tetrazolium staining. The drug was mixed with the perfusate at 50 μg/L starting 5 min prior to reperfusion and continuing for 55 min. […] Ischemic preconditioning is the most powerful cardioprotective intervention known but of no practical value clinically.

Row | SMILES | tolerability [1] | infarct size limitation compared with postconditioning (rabbit hearts (in vivo); 10 μg/kg i.v. 5 min prior to and 15 min after reperfusion) | reduction of infarct size (rabbit hearts (in vivo); 10 μg/kg i.v. 5 min prior to and 15 min after reperfusion, 30 min regional ischemia, 3 hr reperfusion) [%] | adverse hemodynamic effects (rabbit hearts (in vivo); 10 μg/kg i.v., open-chest rabbits) | reduction of infarct size (isolated rabbit hearts; 50 μg/L in perfusate from 5 min prior to reperfusion for 55 min, 30 min ischemia, 2 hr reperfusion) [%] | protection compared with ischemic preconditioning (IPC) (isolated rabbit hearts; 50 μg/L, IPC = 5 min ischemia and 10 min reperfusion) | infarct size in % of risk area, untreated hearts in comparison to treated hearts (isolated rabbit hearts; 50 μg/L, p=0.032)
1 | N#Cc1c(N)nc(SCC(N)=O)c(C#N)c1-c1ccc(OCC2CC2)cc1 [Compound B, 2-({6-Amino-3,5-dicyano-4-[4-(cyclopropylmethoxy)phenyl]pyridin-2-yl}thio)acetamide] | well tolerated | equivalent to postconditioning in its potency; also recorded: as effective as postconditioning | > 50 | No adverse hemodynamic effects |  |  | 
2 | N#Cc1c(N)nc(SCC(N)=O)c(C#N)c1-c1ccc(O)cc1 [Compound A, 2-{[6-Amino-3,5-dicyano-4-(4-hydroxyphenyl)pyridin-2-yl]thio}acetamide] |  |  |  |  | ~50 | not as protective as ischemic preconditioning | significantly larger
